The target of assay [1] is neuraminidase of A/South Korea/90207/2020 WT virus (NA-H275, PA-I38) (Influenza A virus (A(H1N1)pdm09), UniProt A0A0X9QTS2). Type of assay: biochemical.
The test system of assay [2] is A/South Korea/90207/2020 WT virus (NA-H275, PA-I38). Nature of the assay: microbe, parasite or virus in culture. Type of assay: cell-based, influenza A(H1N1)pdm09 virus. The note with it: Influenza A virus, MDCK, 24 h, read-out: EC50 nM ± SD (column headed IC50; footnote: EC50).

`CCC(CC)[C@H](NC(C)=O)[C@@H]1[C@H](O)[C@@H](C(=O)O)C[C@H]1N=C(N)N` [Peramivir, peramivir]: 0.16 nM corresponded to half-maximal inhibition in assay [1] (IC50).

With `O=C1c2c(O)c(=O)ccn2N([C@@H]2c3ccccc3SCc3c2ccc(F)c3F)[C@@H]2COCCN12` [Baloxavir, Baloxavir acid], the EC50 in assay [2] came to 1 ± 0.2 nM.

The record behind these values is PMC9517990 (Communications Biology, 2022).
